Source: patent US20140287995A1, “STABLE PHARMACEUTICAL FORMULATIONS OF GROWTH FACTOR PEPTIDES” (THE UNIVERSITY OF CHICAGO, priority 2011, published 2014)

Legend:
[1] = system: non-transformed African Green Monkey kidney epithelial (BSC-1) cells; assay: Mitogenic response of BSC-1 cells (cell number counted in a hemocytometer after 4 days); type: cell-based; settings: for mitogenic activity of excipient without NX001: 20 mM histidine or 8.8% sucrose, alone or together, diluted 160-fold, FIG. 3A
Experimental: Various lots of unformulated NX001 can be assayed for bioactivity using the mitogenic response of BSC-1 cells as an indicator (see, for instance, U.S. Pat. No. 6,096,706). In this example, two lots of NX001 peptide (Lots PPL-WGF0501A and lot PPL WGF0801) were tested. Varying amounts of the two peptides were added to near-confluent monolayers of non-transformed African Green Monkey kidney epithelial (BSC-1) cells, and the number of cells was counted in a hemocytometer 4 days later.
Each formulation was reconstituted with 1.0 mL water, and was swirled to dissolve the contents. Each solution was then be diluted to 0.125 mg/mL with water. Aliquots of 8 μL each was added to triplicate wells of BSC-1 cells to yield final concentrations of NX001 from 0.05 to 0.4 μg/mL. The plates were incubated at 37° C. for 4 days, and then cells was counted. A third lot of NX001 (PPL-WGF0801) that is not formulated and not lyophilized was dissolved and diluted in water and was used as positive control.
To investigate whether excipients alone or in combination might modify the mitogenic activity, NX001 was added to 20 mM histidine, 8.8% sucrose or the combination and the solutions were diluted to 0.125 mg/mL. Each of the near confluent monolayers of BSC-1 cells in 5 ml DMEM containing 40 μM biotin and 0.5% calf serum received either 8 μl of water, 8 μl of an excipient, or 0.2 μg/ml of PPL-WGF0801 in a final volume of 8 μl of 8.8% sucrose or 20 mM histidine (pH 5.5), or both.
An experiment to determine whether the pH of formulated NX001 affected bioactivity was performed. In this experiment, NX001 (lot PPLWGF0801) was used as a positive control and was dissolved in water to […], diluted 1/160 with water to 0.125 mg/mL, and 8 μL was added to assay plates to a final concentration of 0.2 μg/mL. (see FIG. 4, bar 1).
NX001 (lot PPLWGF0801) was dissolved to 20 mg/mL in either water or PBS, diluted to 0.125 mg/mL in water or PBS as specified, and 8 μL was then added to assay plates to a final concentration of […].
To insure that formulation of NX001 yielded a solution for injection that was as physiological as possible, the formulation of NX001 was adjusted to provide a neutral, iso-osmotic preparation. The adjusted formulation contains 20 mg/mL NX001, 20 mM histidine, 200 mM sucrose at a pH of 7.25, or 80 mg/mL NX001, 20 mM histidine, 15 mM sucrose, pH 7.25. Vials of formulated and lyophilized NX001 at either 80 mg/mL or 20 mg/mL were reconstituted with 1 mL water and diluted to […] before bioassay.

[2] = Stability of neutral lyophilized NX001 formulation, 12 months storage; type: physicochemical
Experimental: The stability of NX001 formulations was also evaluated. The stability of a lot of NX001 was monitored for 12 months at storage temperatures of 5° C. and 25° C. Appearance of lyophilized cake, reconstitution time, appearance of the reconstituted solution, pH, identity of the peptide, potency and purity of the peptide, and residual moisture were evaluated.
The evaluated parameters of neutral formulations of NX001 were not changed following 12 months storage at temperatures of 5° C. and 25° C.

[3] = pH of histidine/sucrose solutions after addition of NX001; type: physicochemical; settings: 20 mM histidine
Experimental: Next, 20 mM histidine, containing 8.8% sucrose was prepared and the pH was adjusted to 5.5 with HCl. Similarly, additional solutions of 20 mM histidine containing 8.8% sucrose were prepared and the pH was adjusted to 7.5 and 9.0. These solutions were diluted 1/160 and 8 μL aliquots added to plates of BSC-1 cells. As shown in FIG. 4 (bars 2, 3, 4), the solutions were not mitogenic themselves. NX001 was dissolved in each of solution to 0.125 mg/mL.

[4] = 5° C., After 12 months of storage
[5] = 25° C., After 12 months of storage

For N[C@@H](Cc1c[nH]cn1)C(=O)O [histidine], which “mitogenic activity of excipient without NX001” value [1] is on record?
Its value is “did not exhibit mitogenic activity”.

For OC[C@H]1O[C@@](CO)(O[C@H]2O[C@H](CO)[C@@H](O)[C@H](O)[C@H]2O)[C@@H](O)[C@@H]1O [sucrose], which “mitogenic activity of excipient without NX001” value [1] is on record?
Its value is “did not exhibit mitogenic activity”.

What does the source list for “AQPYPQGNHEASYG [NX001, growth factor peptide designated NX001; PPL-WGF codes are lots of it]”?
Cake appearance [2, 4]: White cake; Potency (% of NX001 recovered in main peak compared to stated vial concentration) [2, 4]: 99.6%; Purity [2, 4]: 98.8%; Reconstituted appearance [2, 4]: Clear, colorless; Reconstitution time [2, 4]: 64 s; Residual moisture [2, 4]: 0.80%; Total % impurities [2, 4]: 1.2%; pH [2, 4]: 7.2; Cake appearance ([2]; 5° C., Initial): White cake; Potency (% of NX001 recovered in main peak compared to stated vial concentration) ([2]; 5° C., Initial): 102%; Purity ([2]; 5° C., Initial): 98.8%; Reconstituted appearance ([2]; 5° C., Initial): Clear, colorless; Reconstitution time ([2]; 5° C., Initial): 45 s; Residual moisture ([2]; 5° C., Initial): 0.71%; Total % impurities ([2]; 5° C., Initial): 1.2%; pH ([2]; 5° C., Initial): 7.2; Cake appearance [2, 5]: White cake; Potency (% of NX001 recovered in main peak compared to stated vial concentration) [2, 5]: 97.9%; Purity [2, 5]: 98.4%; Reconstituted appearance [2, 5]: Clear, colorless; Reconstitution time [2, 5]: 72 s; Residual moisture [2, 5]: 1.05%; Total % impurities [2, 5]: 1.6%; pH [2, 5]: 7.3; Cake appearance ([2]; 25° C., Initial): White cake; Potency (% of NX001 recovered in main peak compared to stated vial concentration) ([2]; 25° C., Initial): 102%; Purity ([2]; 25° C., Initial): 98.8%; Reconstituted appearance ([2]; 25° C., Initial): Clear, colorless; Reconstitution time ([2]; 25° C., Initial): 45 s; Residual moisture ([2]; 25° C., Initial): 0.71%; Total % impurities ([2]; 25° C., Initial): 1.2%; pH ([2]; 25° C., Initial): 7.2; cell growth ([1]; NX001 0.2 μg/mL added separately from histidine/sucrose solutions of pH 5.5, 7.5, 9.0, FIG. 4 bars 8, 9, 10): increased cell growth to the same extent as the positive control alone; growth-promoting activity ([1]; NX001 0.2 μg/ml in the presence of 20 mM histidine (pH 5.5) alone, FIG. 3B): abolished; increase in cell number ([1]; NX001 0.2 μg/ml in the presence of 8.8% sucrose, FIG. 3B): 23%; growth-promoting activity ([1]; NX001 0.2 μg/ml in the presence of histidine plus sucrose, FIG. 3B): abolished; increase in cell number ([1]; NX001 alone, 0.2 μg/ml, FIG. 3B): 36%; increase in growth of BSC-1 cells ([1]; NX001 dissolved and diluted in water, 0.125 μg/mL, FIG. 5 bar 3): 24%; mitogenicity ([1]; NX001 dissolved in 20 mM histidine, 8.8% sucrose, resulting pH <5.0, ~5.5, ~6.5, not neutralized, FIG. 4 bars 5, 6, 7): not mitogenic; increase in cell number ([1]; NX001 dissolved in PBS and diluted in water, 0.125 μg/mL, FIG. 5 bar 4): increased cell number by the same amount; mitogenic activity ([1]; NX001 dissolved in histidine/sucrose (final pH 5.5), diluted in water, FIG. 5 bar 5): inactive; increase in cell number ([1]; NX001 dissolved in histidine/sucrose and diluted in PBS (pH 7.25), FIG. 5 bar 7): > 24%; mitogenic activity ([1]; NX001 dissolved in histidine/sucrose, neutralized with NaOH to pH 7.5, diluted in water, FIG. 5 bar 6): active; mitogenicity ([1]; NX001 in 20 mM histidine, 8.8% sucrose neutralized with NaOH to pH 7.5 before dilution in water, FIG. 4 bars 11, 12, 13): mitogenic to the same extent as the positive control; mitogenicity ([1]; formulated at 20 mg/mL in 20 mM histidine, 254 mM sucrose, pH 6.5, lyophilized, reconstituted with water, 0.05 to 0.4 μg/mL, FIG. 2): not mitogenic; mitogenic activity ([1]; lot PPL-WGF0501A dissolved in 20 mM histidine, 200 mM sucrose, pH 7.25 immediately before assay, FIG. 6 open circles): active; increase in cell number ([1]; lot PPL-WGF0501A dissolved in PBS immediately before assay, FIG. 6 closed circles): ~30%; maximal mitogenic response ([1]; unformulated NX001 peptide lots, BSC-1 cells, FIG. 1): ~26%; pH of solution after dissolving NX001 ([3]; 8.8% sucrose adjusted to pH 5.5 before NX001): < 5.0; pH of solution after dissolving NX001 ([3]; 8.8% sucrose adjusted to pH 7.5 before NX001): ~5.5; pH of solution after dissolving NX001 ([3]; 8.8% sucrose adjusted to pH 9.0 before NX001): ~6.5

With “gly-tyr-glu-ser-pro-ala-his-gly-tyr-gln-ala-pro-asn-gln (GYESPAHGYQAPNQ) [Scrambled NX001 peptide, 14-amino acid peptide including the same amino acids as NX001, but in scrambled order, reference compound]” as the molecule, how does the “promotion of cell growth” value ([1]; FIG. 6 closed squares) read?
Its value is “did not promote cell growth”.
